Broadly, the IC50 is the concentration that gives 50% inhibition.

We go through one compound from ChEMBL document CHEMBL1938361, “Elaborate ligand-based modeling and subsequent synthetic exploration unveil new nanomolar Ca2+/calmodulin-dependent protein kinase II inhibitory leads” (Bioorg Med Chem, 2012).

In this experiment the target is Calcium/calmodulin-dependent protein kinase type II subunit delta (Homo sapiens, UniProt Q13557). Nature of the experiment: Inhibition of human recombinant CAMK2delta using tetramethylbenzidine as substrate by spectrophotometry analysis.
Calcium/calmodulin-dependent protein kinase type II subunit delta, sequence (Q13557 whole entry): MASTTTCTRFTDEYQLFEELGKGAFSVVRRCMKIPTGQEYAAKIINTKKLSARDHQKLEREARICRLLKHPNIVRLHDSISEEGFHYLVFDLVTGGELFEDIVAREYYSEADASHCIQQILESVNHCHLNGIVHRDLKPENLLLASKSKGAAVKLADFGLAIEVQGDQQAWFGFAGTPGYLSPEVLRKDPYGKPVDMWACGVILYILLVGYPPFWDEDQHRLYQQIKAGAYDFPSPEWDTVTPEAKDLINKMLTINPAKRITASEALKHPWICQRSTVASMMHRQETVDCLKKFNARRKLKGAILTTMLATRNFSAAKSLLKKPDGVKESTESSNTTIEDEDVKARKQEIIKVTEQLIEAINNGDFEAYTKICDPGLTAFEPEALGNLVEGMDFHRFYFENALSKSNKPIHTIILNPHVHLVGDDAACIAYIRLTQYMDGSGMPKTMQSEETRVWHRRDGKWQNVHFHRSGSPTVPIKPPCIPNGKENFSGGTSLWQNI

As to `CN([C@@H](Cc1ccc(OS(=O)(=O)c2cccc3cnccc23)cc1)C(=O)N1CCN(c2ccccc2)CC1)S(=O)(=O)c1cccc2cnccc12`, the IC50 was determined as 380 nM.
